Source: patent US6767569B1, “Surface decontamination of cooked sausage and processed meat and poultry products” (priority 1999, dated 2004)
Where “and” joins values, the source holds several entries; their conditions need not be identical. Equal values may be shown once.

Assays:
Listeria = assay: Further tests: peracetic acid sprayed over the frankfurters; type: cell-based, Listeria monocytogenes; conditions: 2000 ppm sprayed over the frankfurters for 30 seconds to one minute
Salmonella spp. = type: cell-based; conditions: 35 °C, 24 hrs
Protocol: (§1) Each strain was subcultured on tryptic soy agar (TSA, DIFCO, Detroit, Mich.) slants and stored at 4° C. Strains were individually transferred into 100 mL of sterile 2× BHI (DIFCO, Detroit, Mich.) and incubated at 35° C. for 24 hr. to reach ca. 10^9 colony forming units/mL (CFU/mL). Then, 25 mL of each strain of E. coli was transferred into a sterile bottle (mixture X), and 25 mL of each strain of each strain of Salmonella spp. was transferred into a sterile bottle (mixture Y). Mixtures X and Y were maintained separately throughout the test.
(§2) Serial dilutions were made using Butterfields' Phosphate Buffer (BPB, Sigma, St. Louis, Mo.) in 1 mL aliquots prior to inoculation. BPB was prepared as a stock solution by adding 34 g Of KH2PO4 to 500 mL of distilled water. The pH was adjusted to 7.2, and the solution was brought to a volume of 1 L. The BPB stock was autoclaved for 20 min. at 121° C. and 15 lbs. of pressure. […] For glacial acetic acid (U.S.P.-F.C.C., J. T. Baker, Phillipsburg, N.J.), starting concentrations and serial dilutions were 50%, 25%, 12.5%, 6.25%, 3.12%, 1.56%, 0.78%, 0.39%, and a control (no treatment, buffer and culture). […] For peracetic acid 35.0% (STERIS 20™, STERIS Corporation, Mentor, Ohio), starting concentrations and serial dilutions were 17.5%, 8.75%, 4.38%, 2.19%, 1.09%, 0.55%, 0.30%, 0.14%, 0.07%, 0.03%, and a control. For liquid smoke (Hickory Specialties, Brentwood, Tenn.) starting concentrations and serial dilutions were 50%, 25%, 12.5%, 6.25%, 3.12%, 1.56%, 0.78%, 0.39%, and a control. Dilutions were prepared with deionized water.
(§3) The test tubes were incubated at 35° C. for 24 hrs. and turbidity was evaluated using McFarland equivalence standards, to study the bacteriostatic properties of the diluted solutions. In addition, each dilution was plated to evaluate the bactericidal properties of, the diluted solutions. Using a 1 μL sterile loop, each concentration and control for either microorganism mixture was streaked on plate count agar (PCA, DIFCO, Detroit, Mich.). A selective agar was also used for each mixture, eosine methylene blue agar (EMB, DIFCO, Detroit, Mich.) for E. coli and xylose lysine decarboxylase agar (XLD, DIFCO, Detroit,Mich.) for Salmonella spp. All plates were incubated for 24 hrs. at 35° C. and were inspected for growth or no growth.

E. coli = type: cell-based; conditions: E. coli; 35 °C, 24 hrs
Protocol: as §1, §2, §3

`CC(=O)OO` [peracetic acid] was tested, and the kill level (Listeria) was “complete kill”, the “MIC (%)” value (Salmonella spp.) was 0.137% and 0.14% and the “MIC (%)” value (E. coli) was 0.137% and 0.14%.
